The record followed here is patent US12551463B2, “Dosing of a Bruton's tyrosine kinase inhibitor” (Loxo Oncology, Inc., priority 2019, dated 2026).

Where two headings read alike, the source gives them in different places.

One may read the IC90 as the concentration needed for an effect of 90%.

This assay deals with T1, BTK C481S mutant (Homo sapiens, UniProt Q06187, C481S).
T1 construct: expressed in transfected cells
The assay is described as follows: BTK Y223 autophosphorylation in HEK293 cells expressing BTK C481S mutant. The format is cell-based. On the procedure:
HEK293 cell lines stably expressing BTK wild type and the mutant form C481S are generated using standard transfection methods. For assessment of cellular inhibition potency, cells are grown in DMEM+10% FBS+1 μg/mL puromycin (complete growth media) at 37° C. in a C02 incubator. Cells are harvested according to standard protocols using TrypLE (Gibco #12604-013), counted, resuspended in complete growth media, and added to 6 well assay plates at […] in 2 mL. Plates are incubated overnight at 37° C. with 5% C02. The following day, cells are treated for 2 hours with BTK-I, prepared as a 6-point dose curve, 1:3 dilution series with final concentrations starting at a maximum concentration of 300 nM and a constant DMSO concentration of 0.5% (v/v). Control wells contain 0.5% (v/v) DMSO alone (no inhibition control). […] Supernatants are quantified by BCA (Pierce #23225) and stored at −80° C. Samples are analyzed by Simple Western (Protein Simple) with anti-phospho-BTK (Y223) (Cell signaling technologies (cst) #5082) and anti-BTK (cst #8547). β-actin is the used as a loading control and detected by regular Western blot with an anti-β-actin antibody (cst #4970). Simple Western results are analyzed with Compass software (Protein Simple). BTK Y223 phosphorylation signal is normalized to total BTK, and IC50 values are calculated using a 4-parameter fit in GraphPad Prism 7.04 software.

T1 sequence (Q06187 whole entry C481S): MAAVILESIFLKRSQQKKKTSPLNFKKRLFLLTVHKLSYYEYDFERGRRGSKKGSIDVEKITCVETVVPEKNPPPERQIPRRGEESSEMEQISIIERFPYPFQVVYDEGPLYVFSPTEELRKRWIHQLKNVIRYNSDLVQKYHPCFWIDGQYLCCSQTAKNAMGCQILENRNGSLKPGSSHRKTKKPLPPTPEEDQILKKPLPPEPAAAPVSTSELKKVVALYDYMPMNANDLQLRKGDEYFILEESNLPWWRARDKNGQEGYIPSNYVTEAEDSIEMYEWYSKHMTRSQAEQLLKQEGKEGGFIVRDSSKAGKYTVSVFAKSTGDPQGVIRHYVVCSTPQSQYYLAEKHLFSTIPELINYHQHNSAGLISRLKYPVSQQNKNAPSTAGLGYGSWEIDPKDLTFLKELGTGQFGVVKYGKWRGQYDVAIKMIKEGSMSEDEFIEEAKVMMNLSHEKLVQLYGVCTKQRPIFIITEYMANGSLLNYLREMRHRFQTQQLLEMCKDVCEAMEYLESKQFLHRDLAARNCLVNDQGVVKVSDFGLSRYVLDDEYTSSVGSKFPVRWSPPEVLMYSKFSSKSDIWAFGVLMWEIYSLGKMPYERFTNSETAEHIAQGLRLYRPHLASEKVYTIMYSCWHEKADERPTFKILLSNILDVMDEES

As to `COc1ccc(F)cc1C(=O)NCc1ccc(-c2nn([C@@H](C)C(F)(F)F)c(N)c2C(N)=O)cc1` [BTK-I, (S)-5-amino-3-(4-((5-fluoro-2-methoxybenzamido)methyl)phenyl)-1-(1,1,1-trifluoropropane-2-yl)-1H-pyrazole-4-carboxamide], the IC90 (read-out: IC90) was 0.0792 µM and the IC90 (read-out: IC90 translated to total drug in human plasma) is 0.824 mg/L.
